These results are taken from the Kinase Knowledgebase extract (Sharma et al. 2016).

This experiment concerns the target CDK2 (UniProt P24941). The experiment in a line: Enzyme Assay. The settings on record: concentration not given here.

Each structure is given as a SMILES string.

With `CS(=O)(=O)c1ccccc1S(=O)(=O)Nc1ccc2[nH]nc(-c3cccc(N)c3)c2c1`, the inhibition (in general, the change of the read-out against control, counted positive when it falls) was determined as 88%.
For `CN(C)c1ccc(-c2n[nH]c3ccc(NS(=O)(=O)c4ccccc4S(C)(=O)=O)cc23)cc1` the value was 81%; for `CS(=O)(=O)c1ccccc1S(=O)(=O)Nc1ccc2[nH]nc(-c3ccc(-c4ccccc4)c(F)c3)c2c1`, 0%.
For `CSc1ccccc1-c1n[nH]c2ccc(NS(=O)(=O)c3ccccc3S(C)(=O)=O)cc12`, the inhibition came out at 19%.
For `O=S(=O)(Nc1ccc2[nH]nc(-c3ccccc3)c2c1)c1ccccc1`, the inhibition stood at 84%.
For `CS(=O)(=O)c1ccccc1S(=O)(=O)Nc1ccc2[nH]nc(-c3ccc(OC(F)(F)F)cc3)c2c1` the value was 61%; for `CS(=O)(=O)c1ccccc1S(=O)(=O)Nc1ccc2[nH]nc(C#Cc3ccccc3)c2c1`, 90%; for `CS(=O)(=O)c1ccccc1S(=O)(=O)Nc1ccc2[nH]nc(-c3ccc(Cl)cc3Cl)c2c1`, 23%.
`COc1ccccc1-c1n[nH]c2ccc(NS(=O)(=O)c3ccccc3S(C)(=O)=O)cc12` registered an inhibition of 50%.
For `CC(C)c1cc(C(C)C)c(S(=O)(=O)Nc2ccc3[nH]nc(-c4ccccc4)c3c2)c(C(C)C)c1` the value was 50%.
In the case of `O=C(O)c1cccc(S(=O)(=O)Nc2ccc3[nH]nc(-c4ccccc4)c3c2)c1`, the inhibition is 40%.
As for `O=S(=O)(Nc1ccc2[nH]nc(-c3ccc(O)cc3)c2c1)c1ccccc1`, the inhibition worked out at 89%.
For `Cc1cccc(-c2n[nH]c3ccc(NS(=O)(=O)c4ccccc4S(C)(=O)=O)cc23)c1` the value was 71%; for `O=S(=O)(Nc1ccc2[nH]nc(-c3ccccc3)c2c1)c1cccs1`, 80%.
The compound `CS(=O)(=O)c1ccccc1S(=O)(=O)Nc1ccc2[nH]nc(Nc3ccccc3)c2c1` came in with an inhibition of 100%.
Turning to `CS(=O)(=O)c1ccccc1S(=O)(=O)Nc1ccc2[nH]nc(N)c2c1`, the inhibition was found to be 72%.
The value for `O=S(=O)(Nc1ccc2[nH]nc(-c3ccccc3)c2c1)c1cc(F)cc(F)c1` was 68%; that for `O=C(Nc1n[nH]c2ccc(NS(=O)(=O)c3cc(F)cc(F)c3)cc12)c1ccccc1` was 82%; that for `CS(=O)(=O)c1ccccc1S(=O)(=O)Nc1ccc2[nH]nc(-c3ccccc3N)c2c1` was 50%.
For `CS(=O)(=O)c1ccccc1S(=O)(=O)Nc1ccc2[nH]nc(-c3cccc(C(F)(F)F)c3)c2c1` the value was 81%; for `Cc1ccc(-c2n[nH]c3ccc(NS(=O)(=O)c4ccccc4S(C)(=O)=O)cc23)cc1F`, 70%.
The value for `CS(=O)(=O)c1ccccc1S(=O)(=O)Nc1ccc2[nH]nc(-c3cccc(OC(F)(F)F)c3)c2c1` was 60%; that for `CC(C)c1ccc(-c2n[nH]c3ccc(NS(=O)(=O)c4ccccc4S(C)(=O)=O)cc23)cc1` was 24%.
With `CS(=O)(=O)c1ccccc1S(=O)(=O)Nc1ccc2[nH]nc(-c3cccc(Cl)c3)c2c1`, the inhibition stood at 80%.
`Nc1n[nH]c2ccc(NS(=O)(=O)c3cc(F)cc(F)c3)cc12` registered an inhibition of 0%.
In turn, `Cc1cc2[nH]nc(-c3ccccc3)c2cc1NS(=O)(=O)c1ccccc1S(C)(=O)=O` came in with an inhibition of 62%.
For the compound `CS(=O)(=O)c1ccccc1S(=O)(=O)Nc1ccc2[nH]nc(-c3ccccc3F)c2c1`, the inhibition amounted to 61%.
For `CC1(C)[C@H]2CC[C@]1(CS(=O)(=O)Nc1ccc3[nH]nc(-c4ccccc4)c3c1)C(=O)C2` the value was 30%; for `CS(=O)(=O)c1ccc(F)cc1S(=O)(=O)Nc1ccc2[nH]nc(-c3ccccc3)c2c1`, 87%; for `CS(=O)(=O)c1ccccc1S(=O)(=O)Nc1ccc2[nH]nc(-c3ccc(-c4ccccc4)cc3)c2c1`, 41%.
The value for `Cc1ccc(-c2n[nH]c3ccc(NS(=O)(=O)c4ccccc4S(C)(=O)=O)cc23)cc1C` was 75%; that for `Cc1ccc(-c2n[nH]c3ccc(NS(=O)(=O)c4ccccc4S(C)(=O)=O)cc23)cc1` was 66%; that for `O=S(=O)(Nc1ccc2[nH]nc(-c3ccccc3)c2c1)c1ccccc1F` was 81%.
For `COc1ccc(-c2n[nH]c3ccc(NS(=O)(=O)c4ccccc4S(C)(=O)=O)cc23)c(OC)c1` the value was 27%; for `CS(=O)(=O)c1ccccc1S(=O)(=O)Nc1ccc2[nH]nc(-c3ccccc3-c3ccccc3)c2c1`, 27%.
`CCCCS(=O)(=O)Nc1ccc2[nH]nc(-c3ccccc3)c2c1`: the inhibition came out at 30%.
Compound `COc1ccc(-c2n[nH]c3ccc(NS(=O)(=O)c4ccccc4S(C)(=O)=O)cc23)cc1` came in with an inhibition of 93%.
The value for `C[Si](C)(C)C#Cc1cccc(-c2n[nH]c3ccc(NS(=O)(=O)c4ccccc4S(C)(=O)=O)cc23)c1` was 7%.
The compound `CCCNC(=O)c1n[nH]c2ccc(NS(=O)(=O)c3ccccc3S(C)(=O)=O)cc12` displayed an inhibition of 96%.
For `CCOc1ccc(-c2n[nH]c3ccc(NS(=O)(=O)c4ccccc4S(C)(=O)=O)cc23)cc1` the value was 74%.
The value for `CS(=O)(=O)c1ccccc1S(=O)(=O)Nc1ccc2[nH]nc(-c3ccncc3)c2c1` was 87%; that for `O=S(=O)(Nc1ccc2[nH]nc(-c3ccccc3)c2c1)c1ccccc1C(F)(F)F` was 81%.
For the compound `O=S(=O)(Nc1ccc2[nH]nc(-c3ccccc3)c2c1)c1ccc(F)c(F)c1`, the inhibition turned out to be 67%.
`CSc1ccc(-c2n[nH]c3ccc(NS(=O)(=O)c4ccccc4S(C)(=O)=O)cc23)cc1` yielded an inhibition of 84%.
`CS(=O)(=O)c1ccccc1S(=O)(=O)Nc1ccc2[nH]nc(-c3ccc4c(c3)OCO4)c2c1` registered an inhibition of 76%.
The value for `O=S(=O)(Nc1ccc2[nH]nc(-c3cc4ccccc4[nH]3)c2c1)c1cccc(F)c1` was 99%; that for `Cc1ccccc1-c1n[nH]c2ccc(NS(=O)(=O)c3ccccc3S(C)(=O)=O)cc12` was 25%; that for `CS(=O)(=O)c1ccc(-c2n[nH]c3ccc(NS(=O)(=O)c4ccccc4S(C)(=O)=O)cc23)cc1` was 75%.
`CS(=O)(=O)c1ccccc1S(=O)(=O)Nc1ccc2[nH]nc(-c3ccc(CO)cc3)c2c1` registered an inhibition of 73%.
For the compound `CC(=O)Nc1n[nH]c2ccc(NS(=O)(=O)c3cc(F)cc(F)c3)cc12`, the inhibition came out at 82%.
Consider `CS(=O)(=O)c1ccccc1S(=O)(=O)Nc1ccc2[nH]nc(-c3ccc(C(=O)O)cc3)c2c1`, for which the inhibition came out at 61%.
In turn, `O=S(=O)(Nc1ccc2[nH]nc(-c3ccccc3)c2c1)c1cccc2nonc12` displayed an inhibition of 67%.
Consider `CS(=O)(=O)c1ccccc1S(=O)(=O)Nc1ccc2[nH]nc(-c3nc4ccccc4[nH]3)c2c1`, for which the inhibition worked out at 99%.
`O=[N+]([O-])c1ccccc1S(=O)(=O)Nc1ccc2[nH]nc(-c3ccccc3)c2c1` gave an inhibition of 81%.
For `COc1ccc(OC)c(S(=O)(=O)Nc2ccc3[nH]nc(-c4ccccc4)c3c2)c1` the value was 51%.
Regarding `O=S(=O)(Nc1ccc2[nH]nc(-c3cc4ccccc4[nH]3)c2c1)c1ccccc1OC(F)(F)F`, the inhibition amounted to 94%.
Compound `CS(=O)(=O)c1ccccc1S(=O)(=O)Nc1ccc2[nH]nc(-c3cc(Br)cc(Br)c3)c2c1` returned an inhibition of 45%.
For `CS(=O)(=O)c1ccccc1S(=O)(=O)Nc1ccc2[nH]nc(-c3cccc(O)c3)c2c1` the value was 73%.
